Reference: PubChem BioAssay (NCI)
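Exposure lasted 48 hours, with cells grown in 96-well plates and compounds tested at five concentrations. TGI: concentration producing complete growth inhibition.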

Columns and labels:
Test in all cases: growth of human tumour cells (NCI), 48 h
OVCAR-3 ovarian = tested on: OVCAR-3 ovarian
A498 renal = tested on: A498 renal
SNB-75 CNS = tested on: SNB-75 CNS
EKVX NSCLC = tested on: EKVX NSCLC
CCRF-CEM leukemia = tested on: CCRF-CEM leukemia
SK-MEL-28 melanoma = tested on: SK-MEL-28 melanoma
HT29 colon = tested on: HT29 colon
PC-3 prostate = tested on: PC-3 prostate
NCI-H226 lung = tested on: NCI-H226 lung
HL-60(TB) leukemia = tested on: HL-60(TB) leukemia
HCT-116 colon = tested on: HCT-116 colon
U251 CNS = tested on: U251 CNS
CAKI-1 renal = tested on: CAKI-1 renal
COLO 205 colon = tested on: COLO 205 colon
MDA-MB-435 = tested on: MDA-MB-435

| Structure (SMILES) | TGI (OVCAR-3 ovarian) | TGI (A498 renal) | TGI (SNB-75 CNS) | TGI (EKVX NSCLC) | TGI (CCRF-CEM leukemia) | TGI (SK-MEL-28 melanoma) | TGI (HT29 colon) | TGI (PC-3 prostate) | TGI (NCI-H226 lung) | TGI (HL-60(TB) leukemia) | TGI (HCT-116 colon) | TGI (U251 CNS) | TGI (CAKI-1 renal) | TGI (COLO 205 colon) | TGI (MDA-MB-435) |
| --- | --- | --- | --- | --- | --- | --- | --- | --- | --- | --- | --- | --- | --- | --- | --- |
| O=c1c2cc([N+](=O)[O-])ccc2n2n1Cc1ccccc1C2 | > 100 µM | > 100 µM | > 100 µM | > 100 µM | > 100 µM | > 100 µM | > 100 µM | > 100 µM | > 100 µM | > 100 µM | > 100 µM | > 100 µM | > 100 µM | > 100 µM | > 100 µM |
| CC(=O)N(CCc1ccccc1)C(C#N)c1ccc(OCCCCCCCCCCOc2ccc(C(C#N)N(CCc3ccccc3)C(C)=O)cc2)cc1 (stereo not drawn) | > 100 µM | 92.6 µM | 38.3 µM | > 100 µM | > 100 µM | > 100 µM | > 100 µM | > 100 µM | 66.9 µM | > 100 µM | > 100 µM | 64.1 µM | > 100 µM | > 100 µM | > 100 µM |
| CCSC1=N/C(=C\c2ccco2)C(Cl)=N1 | > 100 µM | > 100 µM | > 100 µM | > 100 µM | > 100 µM | > 100 µM | > 100 µM | > 100 µM | > 100 µM | > 100 µM | > 100 µM | > 100 µM | > 100 µM | > 100 µM | > 100 µM |
| COc1ccc(NC(C)=O)cc1C1CCC(=O)N1 (stereo not drawn) | > 100 µM | > 100 µM | > 100 µM | > 100 µM | > 100 µM | > 100 µM | > 100 µM | > 100 µM | > 100 µM | > 100 µM | > 100 µM | > 100 µM | > 100 µM | > 100 µM | > 100 µM |
| C[C@H]1C[C@H](C)c2ccccc2N(C)C1=Nc1ccccc1 | 80 µM | 84.4 µM | > 100 µM | > 100 µM | – | > 100 µM | 23.3 µM | > 100 µM | 83.6 µM | 48.3 µM | 46.3 µM | – | > 100 µM | 49.7 µM | 52.8 µM |
| C=C1CC(C)(COc2ccc3ccc(=O)oc3c2)OC1=O (stereo not drawn) | 17.2 µM | 23.1 µM | 22.6 µM | 26.7 µM | 5.11 µM | 11.2 µM | 9.66 µM | 16.2 µM | 27.3 µM | 2.57 µM | 6.38 µM | 27.1 µM | 7.84 µM | 4.42 µM | 9.35 µM |
| CN(C)CCCCN1c2ccccc2Sc2cc(N=[N+]=[N-])ccc21 | 3.59 µM | 22.4 µM | 4.8 µM | 15.5 µM | 4.11 µM | 3.3 µM | 2.9 µM | 4.22 µM | 7.9 µM | 3.94 µM | 3.32 µM | 4.27 µM | 3.73 µM | 3.09 µM | 3.09 µM |
| COc1ccc(C(c2c[nH]c3ccc(Br)cc23)c2c[nH]c3ccc(Br)cc23)cc1 | 0.52 µM | 2.29 µM | 1.54 µM | 1.49 µM | 0.436 µM | 0.743 µM | 1.03 µM | 0.843 µM | 1.7 µM | 0.346 µM | 0.349 µM | 0.557 µM | 1.64 µM | 0.347 µM | 0.42 µM |
